Results as given in publication PMC4448982, “LP-925219 maximizes urinary glucose excretion in mice by inhibiting both renal SGLT1 and SGLT2” (Pharmacology Research & Perspectives, 2015).

How the values were obtained:
mouse SGLT1 = target: T1, mouse SGLT1 (Mus musculus, UniProt Q8C3K6); experiment: 14C-AMG uptake assay, HEK293 cells expressing mouse SGLT1; type: cell-based; settings: mean ± SD
T1 construct: expressed in transfected cells; host or cells: HEK293 (per abstract)
T1 sequence (Q8C3K6 1-665): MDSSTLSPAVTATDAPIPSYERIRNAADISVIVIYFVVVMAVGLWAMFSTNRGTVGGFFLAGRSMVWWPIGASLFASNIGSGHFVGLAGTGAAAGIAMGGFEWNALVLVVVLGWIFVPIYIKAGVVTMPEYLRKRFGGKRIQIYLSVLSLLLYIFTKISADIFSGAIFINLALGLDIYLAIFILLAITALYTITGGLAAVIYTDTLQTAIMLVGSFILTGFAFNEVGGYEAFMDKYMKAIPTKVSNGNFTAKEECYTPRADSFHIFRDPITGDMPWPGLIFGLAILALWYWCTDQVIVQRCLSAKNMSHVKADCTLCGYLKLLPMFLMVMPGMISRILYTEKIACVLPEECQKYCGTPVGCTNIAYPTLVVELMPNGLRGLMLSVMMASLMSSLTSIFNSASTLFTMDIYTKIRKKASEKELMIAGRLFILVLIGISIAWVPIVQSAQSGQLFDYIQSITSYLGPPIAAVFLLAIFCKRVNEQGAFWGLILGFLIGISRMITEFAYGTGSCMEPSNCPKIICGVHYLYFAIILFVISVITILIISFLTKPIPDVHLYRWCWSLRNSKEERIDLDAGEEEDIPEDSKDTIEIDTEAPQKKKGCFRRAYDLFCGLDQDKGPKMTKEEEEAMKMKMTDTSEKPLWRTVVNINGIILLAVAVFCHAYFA
Description: Methods for generating cell lines expressing mouse, rat, and dog SGLT1 and SGLT2 are published (Powell et al. [2013b], [2014]). Full-length coding sequence of human SGLT1 (NP_000334) and human SGLT2 (NP_003032.1) with an HA-tag at the N-terminus were cloned into the mammalian expression vector pIRESpuro2 (Clontech, Mountain View, CA). HEK293 cells (ATCC, Manassas, VA) were transfected with the pIRESpuro2 vector containing human SGLT1 or SGLT2 and bulk stable cell lines were selected in the presence of 0.5 μg/mL of puromycin.
Cell lines expressing SGLT1 or SGLT2 were plated into poly-D-lysine-coated 384-well plates, and culture overnight in cell growth medium. Cells were washed, and then incubated in uptake buffer ([…], […] KCl, […] CaCl2, […] MgCl2, […] HEPES/Tris, 1 mg/mL of bovine serum albumin, pH7.4) containing [^14C]α-methylglucopyranoside (^14C-AMG), a nonmetabolizable glucose analog specific for sodium-dependent glucose transporters (Wright and Turk [2004]). The inhibition of SGLT1 or SGLT2 was determined by measuring SGLT1/2-mediated ^14C-AMG uptake in the presence of increasing compound concentrations of LP-925219. […] Standard sigmoidal dose–response model curves were fitted, and the IC50 value was computed as the LP-925219 concentration that inhibited the ^14C-AMG uptake by 50% between baseline and maximum uptake.

renal SGLT1 and SGLT2 = experiment: Metabolic cage study, 24-h urinary glucose excretion; type: in vivo, mouse
Description: Mice were individually housed in Nalgene Metabolic Cages for Mice (product MTB-0311), and 24-h urine collections were made to determine 24-h UGE, as described previously (Powell et al. [2013a]). Some mice received a single dose of either LP-925219 or vehicle by oral gavage at 8 am immediately prior to initiating collection of 24-h urine samples; in addition, some mice received two doses of either vehicle or 60 mg/kg LP-925219 by oral gavage, with the first dose given at 8 am and the second dose given at 6 pm, nearly midway through the collection of the 24-h urine sample.
Figure 5 UGE values in mice treated with a single dose of LP-925219. After DKO, S2 KO, S1 KO, and WT littermate mice received, by a single oral gavage at 8 am, either vehicle (Veh) or LP-925219 at a dose of (A) 1 mg/kg; (B) 10 mg/kg; or (C) 60 mg/kg, the mice were placed in metabolic cages and their urine was collected over the next 24 h and analyzed for total glucose. N = 5–11 mice/group. UGE < DKO UGE: *P < 0.05, **P < 0.01, ***P < 0.001; LP-925219 UGE > Veh UGE for the same group, ^^^P < 0.001. UGE, urinary glucose excretion.
Figure 6 UGE values in mice treated with two doses of 60 mg/kg LP-925219. DKO, S2 KO, S1 KO, and WT littermate mice received, by oral gavage at 8 am and then again at 6 pm, either vehicle (Veh) or LP-925219 at a dose of 60 mg/kg. The mice were placed in metabolic cages after the first gavage and their urine was collected over the next 24 h and analyzed for total glucose. N = 6–11 mice/group. UGE < DKO UGE, ***P < 0.001; LP-925219 UGE > Veh UGE for the same group, ^^^P < 0.001. UGE, urinary glucose excretion.

`COc1ccc(Cc2cc([C@@H]3O[C@H](SC)[C@@H](O)[C@H](O)[C@H]3O)ccc2Cl)cc1` [LP-925219] was tested, and the IC50 (mouse SGLT1) was 22.6 ± 1 nM, the “24-h UGE” value (renal SGLT1 and SGLT2; DKO mice, single oral dose 1, 10 or 60 mg/kg, vs vehicle) was “not significantly increased” and the “24-h UGE” value (renal SGLT1 and SGLT2; DKO mice, two oral 60 mg/kg doses (8 am, 6 pm), vs vehicle) was “not significantly increased”. The “24-h UGE” value (renal SGLT1 and SGLT2; SGLT1 KO mice, single oral dose 1 mg/kg) was “almost maximal”, the “24-h UGE” value (renal SGLT1 and SGLT2; SGLT1 KO mice, single oral dose, all higher doses (10, 60 mg/kg)) was “maximal” and the “24-h UGE” value (renal SGLT1 and SGLT2; SGLT1 KO mice, two oral 60 mg/kg doses (8 am, 6 pm)) was “maximally increased”. For the same compound, the “24-h UGE” value (renal SGLT1 and SGLT2; WT mice, single oral dose 1 mg/kg, vs vehicle) was “did not show a significant response”, the “24-h UGE” value (renal SGLT1 and SGLT2; WT mice, single oral dose 60 mg/kg, maximal = vehicle-treated DKO) was 68 ± 15 % of maximal and the “24-h UGE” value (renal SGLT1 and SGLT2; WT mice, two oral 60 mg/kg doses (8 am, 6 pm)) was 90 ± 17 % of maximal.
